Results reported in US8927504B2, “Combined use of dipeptidyl peptidase 4 inhibitor and sweetener” (Mitsubishi Tanabe Pharma Corporation, priority 2007, dated 2015).

Key:
active GLP-1 in plasma [1] = assay: GLP-1 secretion-stimulating action by combined use of DPP4 inhibitor and sweetener (2), Example 4; assay type: in vivo, mouse; details: 1 hour after dosing, relative to 100 for Compound A′ and fructooligosaccharide 6 g/kg, C57BL/6J mice
Experimental: Male C57BL/6J mice (Clea Japan, Inc.) (7-week-old at time of use) were used in the test.
These study animals were used in the test after first fasting starting on the night prior to the test and then grouping according to body weight. The animals were orally administered test DPP4 inhibitor (or purified water as a control) (10 mL/kg). At 30 minutes after administration, the animals were then orally administered (10 mL/kg) a solution of test sweetener (or purified water as a control) followed by collecting blood samples at 0, 30, 60, 180 and 300 minutes after administration. These samples were then measured for concentrations of active GLP-1 in plasma.
Measurement of plasma active GLP-1 concentrations and analysis and testing of the measurement results were carried out in the same manner as (1) of Example 1 above.
Fructooligosaccharide (Meiji Seika Kaisha Ltd.), kestose (Meiji Seika Kaisha Ltd., GF2), raffinose (Wako Pure Chemical Industries, Ltd.), melibiose (Wako Pure Chemical Industries, Ltd.), xylooligosaccharide (Suntory Ltd.), xylose (Wako Pure Chemical Industries, Ltd.), xylitol (Wako Pure Chemical Industries, Ltd.), sorbitol (Wako Pure Chemical Industries, Ltd.), D-mannitol (Wako Pure Chemical Industries, Ltd.), erythritol (Wako Pure Chemical Industries, Ltd.), maltitol (Hayashibara Biochemical Laboratories, Inc.), sucralose (San-Ei Gen F.F.I., Inc.) or acesulfame K (Wako Pure Chemical Industries, Ltd.) was used as sweetener and administered orally (10 mL/kg) at 6 g/kg, 3 g/kg or 1 g/kg.
In addition, (2S)-2-cyano-1-[trans-4-(dimethylaminocarbonyl)cyclohexylamino]acetylpyrrolidine benzenesulfonate (hereafter referred to as Compound A′) as DPP4 inhibitor (or purified water as a control) was used at 10 mg/kg and administered orally (10 mL/kg).
Blood active GLP-1 level-increasing action was tested for the cases of combined use of DPP4 inhibitor and each type of sweetener in accordance with the method described in (1) above (n=4 to 5 animals per group).
Blood active GLP-1 concentrations (1 hour after dosing) in the groups dosed with both each type of sweetener (6 g/kg, 3 g/kg or 1 g/kg) and Compound A′ (10 mg/kg) were represented as relative values with respect to blood active GLP-1 concentrations (1 hour after dosing) in the group dosed with fructooligosaccharide (6 g/kg) and Compound A′.

GLP-1 = details: Shima et al., Acta Endocrinologica 1990; cited from earlier work
active GLP-1 in plasma [2] = assay: GLP-1 secretion-stimulating action of sweetener in DPP4-deficient rats (blood active GLP-1 level-increasing action), Example 1; assay type: in vivo, rat; details: sweetener alone 3 to 6 g/kg/10 mL orally; DPP4-deficient F344DucrlCrlj rats
Experimental: Male […] rats (Charles River Laboratories Japan, Inc.) (7 to 10-week-old at time of use) were used for the study animals. […] rats are known to be rats of a strain having a spontaneous DPP4 gene deficiency (Watanabe, et al., Experientia, 1987, 43:400-401). These study animals were used in the test after fasting starting on the night prior to the test and grouping according to body weight. The animals were orally administered (10 mL/kg) a solution of the test sweetener (or purified water as a control) followed by collecting blood samples from the tip of the tail at 0, 30, 60, 180 and 360 minutes after dosing. These samples were then measured for concentrations of active GLP-1 in plasma. Measurement of plasma active GLP-1 concentrations was carried out in the following manner. […] Plasma GLP-1 concentrations were then measured using the Bio-Plex Suspension Array System (Rat Endocrine LINCOplex Kit; available from Linco Research, Inc.) or the Glucagon-like Peptide-1 (Active) ELISA KitTM (available from Linco Research, Inc.; active GLP-1 measurement kit). The measurement results were tested for the presence of a significant difference between groups by comparing the sweetener-loaded group with the control group using Dunnett's multiple comparison test (two-sided test). […] Biological Experimental Data Statistical Analysis System, from Arm Systex Co., Ltd.) was used to analyze the data.

active GLP-1 in plasma [3] = assay: GLP-1 secretion-stimulating action by combined use of DPP4 inhibitor and sweetener (1), Example 2; assay type: in vivo, mouse; details: C57BL/6J mice
Experimental: Male SD(CD)/Crj rats (Charles River Laboratories Japan, Inc.) (6-week-old at time of use) or male C57BL/6J mice (Clea Japan, Inc.) (9-week-old at time of use) were used in the test.
These study animals were used in the test after first grouping according to body weight. The animals were orally administered (10 mL/kg) a test DPP4 inhibitor (or purified water as a control). At 30 minutes after administration, the animals were then orally administered (10 mL/kg) a solution of a test sweetener (or purified water as a control) followed by collecting blood samples at 0, 30, 60, 180 and 300 minutes after administration. These samples were then measured for concentrations of active GLP-1 in plasma.
Measurement of plasma active GLP-1 concentrations was carried out in the same manner as (1) of Example 1 above.
The measurement results were tested for the presence of a significant difference between groups by comparing the sweetener-loaded groups with the control group using Dunnett's multiple comparison test (two-sided test). Here, a P value less than 5% was considered statistically significant, and statistical analysis software (EXSAS: Biological Experimental Data Statistical Analysis System, Arm Systex Co., Ltd.) was used to analyze the data.
C57BL/6J mice were used for the study animals. […]

[4] = Body weight-reducing test using DIO (diet-induced obesity) mice (1), Example 3; assay type: in vivo, mouse; details: Compound A alone 10 mg/100 g in-feed; high fat diet-fed C57BL/6J mice
Experimental: High fat diet-fed, male C57BL/6J mice (Clea Japan, Inc.) were used in the test.
Fed a high fat diet was carried out by allowing 3-week-old, male C57BL/6J mice (Clea Japan, Inc.) to free access to a high-fat diet having 37.2 w/w % fat content and 5.578 kcal/g calorie level (available from Oriental Yeast Co., Ltd.) for feed. Normal diet control mice were allowed free access to CRF-1 (fat content: 5.7 w/w %, calorie level: 3.59 kcal/g, available from Oriental Yeast Co., Ltd.).
The mice were used in the test after housing to age 39 weeks while fed a high fat diet in this manner.
These study animals were used in the test after first grouping according to body weight and blood sugar level.
The animals were administered test DPP4 inhibitor and test sweetener either orally or in-feed. […]
Body weight and food intake were measured over time after the start of administration of the test substances.
Moreover, in the case body weight-reducing effect was observed, body composition was measured using a laboratory mouse X-ray body fat percentage measuring device (PIXImus2, GE Medical Systems Inc.) under pentobarbital anesthesia (70 mg/kg, i.p.). […]

[5] = administration to mice; JP H6-65080; cited from earlier work
[6] = sweetener 6 g/kg orally combined with Compound A′ 10 mg/kg orally

OC[C@@H](O)[C@@H](O[C@H]1O[C@H](CO)[C@@H](O)[C@H](O)[C@H]1O)[C@H](O)[C@@H](O)CO [Maltitol, α-D-glucopyranosyl-(1→4)-D-glucitol]
Plasma active GLP-1 concentration (relative value) (active GLP-1 in plasma [1]; [6]): 422 | blood GLP-1 levels following administration (GLP-1): blood GLP-1 levels are increased

O=C[C@H](O)[C@@H](O)[C@H](O)CO [Xylose, xylose]
Plasma active GLP-1 concentration (relative value) (active GLP-1 in plasma [1]; [6]): 597 | levels of active GLP-1 in plasma as compared with the control group (active GLP-1 in plasma [2]): remarkably high values | levels of active GLP-1 in plasma in comparison with the control group (active GLP-1 in plasma [3]; sweetener 6 g/kg orally combined with Compound A 10 mg/kg orally, fructooligosaccharide: at 30, 60, 180 and 300 minutes): remarkable increases in plasma active GLP-1 levels were observed

OC[C@@H](O)[C@H](O)[C@@H](O)CO [Xylitol, xylitol]
Plasma active GLP-1 concentration (relative value) (active GLP-1 in plasma [1]; sweetener 3 g/kg orally combined with Compound A′ 10 mg/kg orally): 272 | Plasma active GLP-1 concentration (relative value) (active GLP-1 in plasma [1]; [6]): 774 | levels of active GLP-1 in plasma as compared with the control group (active GLP-1 in plasma [2]): remarkably high values

CN(C)C(=O)[C@H]1CC[C@H](NCC(=O)N2CCC[C@H]2C#N)CC1.Cl (relative stereo) [Compound A, (2S)-2-cyano-1-[trans-4-(dimethylaminocarbonyl)cyclohexylamino]acetylpyrrolidine hydrochloride]
body weight as compared with the control group [4]: no changes in body weight | plasma active GLP-1 levels (active GLP-1 in plasma [3]; Compound A 10 mg/kg orally alone): no increases in plasma active GLP-1 levels observed

O=C[C@H](O)[C@@H](O)[C@@H](O)CO [L-arabinose]
weight gain [5]: inhibited weight gain in mice
